Test results: patent US20240069011A1, “PREDICTING EFFICACY OF OR RESISTANCE TO TREATMENT OF COLON CANCER” (2cureX A/S, priority 2020, published 2024)

Columns and labels:
[1] = tested on: tumoroids from colon cancer patients; assay: Tumoroid growth inhibition measured as projected area by imaging (CyQUANT, IndiNet); assay type: cell-based, human; settings: 50% inhibition of tumoroid growth (projected area), day 7, tumoroids from four control patients
Description: The tumoroids were prepared from patient samples as described above in Example 2 under “3D tumoroid preparation”. The tumoroids were added to drug screening arrays that we pre-loaded with varying concentrations of Oxaliplatin (3, 10, 30, 100, 300 uM), FOLFOX (0, 1, 0, 3, 1, 3, 10 30 uM. Equal concentrations of 5-Fluorouracil and Oxaliplatin) and SN38 (10, 30, 100, 300, 1000 nM). SN38 is the active components of Irinotecan. At day 6 to day 7 tumoroids were stained with CyQUANT (cell proliferation assay). Tumoroid growth was measured by taking brightfield images on day 0 and visualizing living cells using CyQUANT Cell proliferation assay (ThermoFisher) on day 7. All images were acquired using a Cytation 1 (BioTek) imaging system. For Control patients, tissue from resected tumor was used. This sampling method typically secures bigger amounts of tissue and mechanically as well as enzymatically digestion is performed.
Images from day 0 and day 7 were analysed using the Al image analysis algorithm IndiNet™, which quantifies the projected area (referred to as “area” in this example) of live cells in both brightfield (day 0) and fluorescence (day 7) images and calculates the relative growth inhibition. […]

[2] = tested on: tumoroids from colon cancer patients; assay: Tumoroid ATP content (CellTiter-Glo 3D cell viability assay); assay type: cell-based, human; settings: 50% inhibition of total ATP content, day 7, tumoroids from four control patients
Description: The tumoroids were prepared from the same patient samples as described above under “drug sensitivity measured with imaging”. The tumoroids were added to drug screening arrays that we pre-loaded with varying concentrations of Oxaliplatin (3, 10, 30, 100, 300 uM), FOLFOX (0, 1, 0, 3, 1, 3, 10 30 uM. Equal concentrations of 5-Fluorouracil and Oxaliplatin) and SN38 (10, 30, 100, 300, 1000 nM). ATP content of cells in the tumoroids was measured day 0 and on day 7 using CellTiter-Glo 3D cell viability assay (Promega; Catalog number G9681). The homogenous CellTiter-Glo 3D assays generates a luminescent signal that is proportional to the amount of cellular ATP. The assay was conducted in accordance with the instructions from the manufacture (Promega) by allowing the drug screening arrays to equilibrate to room temperature (20-25° C.) and then adding an amount of the CellTiter-Glo 3D reagent to the drug screening arrays. The equal volume of media and reagent is mixed thoroughly for 5 min to induce cell lysis and release of cellular ATP content. The luminescence signal was monitored with the Cytation 1 (BioTek) imaging system operating in luminescence mode. The luminescence signal was quantified by direct comparison to an ATP dose-response curve created by replacing the drug screening media with ATP standards.

[3] = Folfox = equal concentrations of 5-Fluorouracil and Oxaliplatin

IC50 [1] [µM] | IC50 [2] [µM] | SMILES | IC50 [1, 3] [µM] | IC50 [2, 3] [µM]
 |  | O=C1[O][Pt]2([NH][C@@H]3CCCC[C@H]3[NH]2)[O]C1=O [Oxaliplatin, oxaliplatin] | 17.7 | 72.7
0.00164 | 0.0367 | CCc1c2c(nc3ccc(O)cc13)-c1cc3c(c(=O)n1C2)COC(=O)[C@]3(O)CC [SN38] |  | 
